This note sets out measurements from patent publication US10508085B2, “Compounds and methods for IDO and TDO modulation, and indications therefor” (Plexxikon Inc., priority 2016, dated 2019).

Structures are written as SMILES. A value given as a limit tells only on which side of the number the result lay.

Test [1] addresses T1, Human Tryptophan 2,3-dioxygenase (TDO) (Homo sapiens, UniProt P48775).
T1 construct: His tag (N); made in house; host or cells: E. coli
Nature of the test: Human TDO enzymatic assay (kynurenine level). It is filed as biochemical. To be noted: 1 nM TDO, 350 μM L-Trp; geometric mean; read-out: TDO GMean: IC50 (μM) (Biochemical Assay). Summed up:
(§1)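 IDO conditions: 6 nM His-IDO, 10 μM L-Trp, 5 μM methylene blue, 20 min, RT. TDO conditions: 1 nM His-TDO, 350 μM L-Trp, 0.4 μM methylene blue, 70 min, RT. Both used pH 6.5 phosphate plus ascorbate/catalase, TCA stop at 50° C, kynurenine readout, nonlinear-regression IC50.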

In test [2] the target is T2, human TDO (TDO-expressing HEK293 cells) (Homo sapiens, UniProt P48775).
T2 construct: expressed in transfected cells
In words: Cell based kynurenine assay, TDO-expressing HEK293 cell clones. Particulars: TDO-expressing HEK293 cells, 24 hours, geometric mean; read-out: HEK293 TDO Kynurenine GMean IC50 (μM) (Cellular Assay). Summed up: (§2)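 Steps: seed IDO1- or TDO-expressing HEK293 cells at 2.5×10^4 per well; add compound dilutions; incubate 24 h; transfer supernatant and determine kynurenine; derive IC50 via nonlinear regression of percent inhibition.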

Test [3] has as its target T3, Human Indoleamine 2,3-dioxygenase (IDO) (Homo sapiens, UniProt P14902).
T3 construct: His tag (N); made in house; host or cells: E. coli
In words: Human IDO enzymatic assay (kynurenine level). It is filed as biochemical. To be noted: 6 nM IDO, 10 μM L-Trp; geometric mean; read-out: IDO1 GMean: IC50 (μM) (Biochemical Assay). The essentials:
as §1

Test [4] addresses T4, human IDO (IDO1-expressing HEK293 cells) (Homo sapiens, UniProt P14902).
T4 construct: expressed in transfected cells
Nature of the test: Cell based kynurenine assay, IDO1-expressing HEK293 cell clones. To be noted: IDO1-expressing HEK293 cells, 24 hours, geometric mean; read-out: HEK293 IDO1 Kynurenine GMean IC50 (μM) (Cellular Assay). Summed up: as §2

T4 sequence (P14902 whole entry): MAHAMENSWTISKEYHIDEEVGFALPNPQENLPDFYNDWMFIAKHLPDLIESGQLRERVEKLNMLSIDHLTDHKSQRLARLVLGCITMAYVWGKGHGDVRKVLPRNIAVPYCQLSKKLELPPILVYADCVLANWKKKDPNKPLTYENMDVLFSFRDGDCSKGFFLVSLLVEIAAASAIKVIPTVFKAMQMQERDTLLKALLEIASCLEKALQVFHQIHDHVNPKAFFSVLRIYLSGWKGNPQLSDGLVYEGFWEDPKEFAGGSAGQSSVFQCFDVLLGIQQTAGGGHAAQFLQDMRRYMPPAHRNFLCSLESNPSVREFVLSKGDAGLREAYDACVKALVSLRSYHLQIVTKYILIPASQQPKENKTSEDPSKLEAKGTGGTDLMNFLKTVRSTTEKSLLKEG
T3 sequence (P14902 whole entry): as above
T1 sequence (P48775 whole entry): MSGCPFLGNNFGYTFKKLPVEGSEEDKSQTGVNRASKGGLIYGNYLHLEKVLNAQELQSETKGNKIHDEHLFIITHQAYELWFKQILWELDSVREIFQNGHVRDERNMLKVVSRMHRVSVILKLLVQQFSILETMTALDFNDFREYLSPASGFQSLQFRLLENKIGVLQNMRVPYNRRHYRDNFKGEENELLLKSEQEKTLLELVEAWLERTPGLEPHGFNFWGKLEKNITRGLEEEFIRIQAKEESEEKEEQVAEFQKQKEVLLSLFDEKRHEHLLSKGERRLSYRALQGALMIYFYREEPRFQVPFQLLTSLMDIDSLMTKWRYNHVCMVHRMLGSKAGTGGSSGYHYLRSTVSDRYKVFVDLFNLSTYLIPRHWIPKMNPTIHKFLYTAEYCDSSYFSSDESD
T2 sequence (P48775 whole entry): as above

As to `O=C(Cc1cccc(Cl)c1)N1CCC(C(F)(F)C(O)c2cc(Cl)cc3cn[nH]c23)CC1` (centres unmarked) [Compound P-0520, 1-(4-(2-(5-chloro-1H-indazol-7-yl)-1,1-difluoro-2-hydroxyethyl)piperidin-1-yl)-2-(3-chlorophenyl) ethan-1-one], the IC50 in test [1], in test [2], in test [3] and in test [4] was 0.0001 to 10 µM each time.

As to `COc1ccc(CC(=O)N2CCC(C(F)(F)C(O)c3cc(Cl)cc4cn[nH]c34)CC2)cn1` (centres unmarked) [Compound P-0521, 1-(4-(2-(5-chloro-1H-indazol-7-yl)-1,1-difluoro-2-hydroxyethyl)piperidin-1-yl)-2-(6-methoxypyridin-3-yl)ethan-1-one], the IC50 in test [1], in test [2], in test [3] and in test [4] was 0.0001 to 10 µM throughout.

As for `COc1cccc(CC(=O)N2CCC(C(F)(F)C(O)c3cc(Cl)cc4cn[nH]c34)CC2)c1` (centres unmarked) [Compound P-0522, 1-(4-(2-(5-chloro-1H-indazol-7-yl)-1,1-difluoro-2-hydroxyethyl)piperidin-1-yl)-2-(3-methoxyphenyl) ethan-1-one], the IC50 in test [1], in test [2], in test [3] and in test [4] was 0.0001 to 10 µM throughout.

Take `O=C(Cc1ccc(Cl)c(F)c1)N1CCC(C(F)(F)C(O)c2cc(Cl)cc3cn[nH]c23)CC1` (centres unmarked) [Compound P-0523, 1-(4-(2-(5-chloro-1H-indazol-7-yl)-1,1-difluoro-2-hydroxyethyl)piperidin-1-yl)-2-(4-chloro-3-fluorophenyl)ethan-1-one]: the IC50 in test [1], in test [2], in test [3] and in test [4] was 0.0001 to 10 µM throughout.

As to `O=C(Cc1ccc(F)c(Cl)c1)N1CCC(C(F)(F)C(O)c2cc(Cl)cc3cn[nH]c23)CC1` (centres unmarked) [Compound P-0524, 1-(4-(2-(5-chloro-1H-indazol-7-yl)-1,1-difluoro-2-hydroxyethyl)piperidin-1-yl)-2-(3-chloro-4-fluorophenyl) ethan-1-one], the IC50 in test [1], in test [2], in test [3] and in test [4] was 0.0001 to 10 µM throughout.

As for `O=C(Cc1ccnc(Cl)c1)N1CCC(C(F)(F)C(O)c2cc(Cl)cc3cn[nH]c23)CC1` (centres unmarked) [Compound P-0525, 1-(4-(2-(5-chloro-1H-indazol-7-yl)-1,1-difluoro-2-hydroxyethyl)piperidin-1-yl)-2-(2-chloropyridin-4-yl)ethan-1-one], the IC50 in test [1], in test [2], in test [3] and in test [4] was 0.0001 to 10 µM throughout.

For the compound `COc1cc(CC(=O)N2CCC(C(F)(F)C(O)c3cc(Cl)cc4cn[nH]c34)CC2)ccn1` (centres unmarked) [Compound P-0526, 1-(4-(2-(5-chloro-1H-indazol-7-yl)-1,1-difluoro-2-hydroxyethyl)piperidin-1-yl)-2-(2-methoxypyridin-4-yl)ethan-1-one], the IC50 in test [1], in test [2], in test [3] and in test [4] was 0.0001 to 10 µM in each case.

Take `CC(C)(C)OC(=O)N1CCC(C(F)(F)[C@H](O)c2c3c(cc4cn[nH]c24)CC3)CC1` [Compound P-0527, tert-butyl (R)-4-(2-(5,6-dihydro-1H-cyclobuta[f]indazol-7-yl)-1,1-difluoro-2-hydroxyethyl) piperidine-1-carboxylate]: the IC50 (commonly the concentration that gives 50% inhibition) was in the range of 10 to 100 µM in test [1], 0.0001 to 10 µM in test [2], 0.0001 to 10 µM in test [3] and 0.0001 to 10 µM in test [4].

For the compound `CC(C)(C)OC(=O)N1CCC(C(F)(F)[C@@H](O)c2c3c(cc4cn[nH]c24)CC3)CC1` [Compound P-0528, tert-butyl (S)-4-(2-(5,6-dihydro-1H-cyclobuta[f]indazol-7-yl)-1,1-difluoro-2-hydroxyethyl) piperidine-1-carboxylate], the concentration for half-maximal inhibition (IC50) in test [1] was greater than 200 µM; in test [2], 0.0001 to 10 µM; in test [3], 0.0001 to 10 µM; in test [4], 0.0001 to 10 µM.

As for `CC(C)(C1CCN(C(=O)C2CC2)CC1)[C@H](O)c1cc(Cl)cc2cn[nH]c12` [Compound P-0529, (S)-(4-(1-(5-chloro-1H-indazol-7-yl)-1-hydroxy-2-methylpropan-2-yl)piperidin-1-yl)(cyclopropyl) methanone], the IC50 in test [1], in test [2], in test [3] and in test [4] was 0.0001 to 10 µM throughout.

For the compound `CC(C)(C1CCN(C(=O)CC2CC2)CC1)[C@H](O)c1cc(Cl)cc2cn[nH]c12` [Compound P-0530, (S)-1-(4-(1-(5-chloro-1H-indazol-7-yl)-1-hydroxy-2-methylpropan-2-yl)piperidin-1-yl)-2-cyclopropylethan-1-one], the IC50 in test [1], in test [2], in test [3] and in test [4] was 0.0001 to 10 µM each time.

In the case of `CC(C)(C1CCN(C(=O)CC(F)(F)F)CC1)[C@H](O)c1cc(Cl)cc2cn[nH]c12` [Compound P-0531, (S)-1-(4-(1-(5-chloro-1H-indazol-7-yl)-1-hydroxy-2-methylpropan-2-yl)piperidin-1-yl)-3,3,3-trifluoropropan-1-one], the IC50 in test [1], in test [2], in test [3] and in test [4] was 0.0001 to 10 µM each time.

Turning to `CC(C)(C1CCN(C(=O)CC2CCOCC2)CC1)[C@H](O)c1cc(Cl)cc2cn[nH]c12` [Compound P-0532, (S)-1-(4-(1-(5-chloro-1H-indazol-7-yl)-1-hydroxy-2-methylpropan-2-yl)piperidin-1-yl)-2-(tetrahydro-2H-pyran-4-yl)ethan-1-one], the IC50 in test [1], in test [2], in test [3] and in test [4] was 0.0001 to 10 µM each time.

With `COCC(=O)N1CCC(C(C)(C)[C@H](O)c2cc(Cl)cc3cn[nH]c23)CC1` [Compound P-0533, (S)-1-(4-(1-(5-chloro-1H-indazol-7-yl)-1-hydroxy-2-methylpropan-2-yl)piperidin-1-yl)-2-methoxyethan-1-one], the IC50 in test [1], in test [2], in test [3] and in test [4] was 0.0001 to 10 µM in each case.

For `CC(C)(C1CCN(C(=O)CC#N)CC1)[C@H](O)c1cc(Cl)cc2cn[nH]c12` [Compound P-0534, (S)-3-(4-(1-(5-chloro-1H-indazol-7-yl)-1-hydroxy-2-methylpropan-2-yl)piperidin-1-yl)-3-oxopropanenitrile], the IC50 in test [1], in test [2], in test [3] and in test [4] was 0.0001 to 10 µM each time.

`CC(C)(C1CCN(C(=O)CO)CC1)[C@H](O)c1cc(Cl)cc2cn[nH]c12` [Compound P-0535, (S)-1-(4-(1-(5-chloro-1H-indazol-7-yl)-1-hydroxy-2-methylpropan-2-yl)piperidin-1-yl)-2-hydroxyethan-1-one]: the IC50 in test [1], in test [2], in test [3] and in test [4] was 0.0001 to 10 µM each time.

`CC(C)(C1CCN(C(=O)c2cccnc2)CC1)[C@H](O)c1cc(Cl)cc2cn[nH]c12` [Compound P-0536, (S)-(4-(1-(5-chloro-1H-indazol-7-yl)-1-hydroxy-2-methylpropan-2-yl)piperidin-1-yl)(pyridin-3-yl)methanone]: the IC50 in test [1], in test [2], in test [3] and in test [4] was 0.0001 to 10 µM in each case.

Turning to `CC(C)(C1CCN(C(=O)c2ccc(C(F)(F)F)nc2)CC1)[C@H](O)c1cc(Cl)cc2cn[nH]c12` [Compound P-0537, (S)-(4-(1-(5-chloro-1H-indazol-7-yl)-1-hydroxy-2-methylpropan-2-yl)piperidin-1-yl)(6-(trifluoromethyl)pyridin-3-yl)methanone], the IC50 in test [1], in test [2], in test [3] and in test [4] was 0.0001 to 10 µM in each case.

As to `CC(C)(C1CCN(C(=O)c2ccc(N3CCOCC3)nc2)CC1)[C@H](O)c1cc(Cl)cc2cn[nH]c12` [Compound P-0538, (S)-(4-(1-(5-chloro-1H-indazol-7-yl)-1-hydroxy-2-methylpropan-2-yl)piperidin-1-yl)(6-morpholinopyridin-3-yl)methanone], the IC50 in test [1], in test [2], in test [3] and in test [4] was 0.0001 to 10 µM throughout.

Turning to `CC(C)(C1CCN(C(=O)C2C(C)(C)C2(C)C)CC1)[C@H](O)c1cc(Cl)cc2cn[nH]c12` [Compound P-0539, (S)-(4-(1-(5-chloro-1H-indazol-7-yl)-1-hydroxy-2-methylpropan-2-yl)piperidin-1-yl)(2,2,3,3-tetramethylcyclopropyl) methanone], the IC50 in test [1], in test [2], in test [3] and in test [4] was 0.0001 to 10 µM throughout.
